Results: patent US11236078B2, “Heterocyclic inhibitors of the sodium channel” (priority 2014, dated 2022)

Columns and labels:
Type in all cases: cell-based
[1] = molecular target: T1, human Nav1.7 (hNav1.7) (Homo sapiens, UniProt Q15858); assay: hNav1.7 slow inactivation block, manual patchclamp; conditions: HEK 293F cells stably expressing hNav1.7, slow inactivation induced in approximately 50% of channels
T1 construct: expressed in transfected cells
Text: (§1) The generation of HEK 293F cell lines stably expressing human Nav1.7 (h Nav1.7), human Nav1.5 (hNav1.5) and rat Nav1.2 (r Nav1.2) was achieved by subcloning SCN9A, SCN5A, and SCN2A genes into inducible expression vectors followed by transfection into target cells using standard techniques. In the case of h Nav1.7, an expression vector encoding the human Navβ1 auxiliary subunit gene, SCN1B, was co-transfected with the expression vector bearing the SCN9A gene. Clones were selected using appropriate selection agents (0.3 mg/mL Zeocin and 0.8 mg/mL Geneticin) and maintained in Dulbecco's Modified Eagle medium, 10% fetal bovine serum, 1% non-essential amino acids to ˜80% confluence at 37° C. in a humidified incubator with 95% atmosphere and 5% CO2.
(§2) On the day of each experiment, cells that were grown to 80% confluence in a T75 flask were harvested for use on PatchXpress (Molecular Devices, CA, USA). Following a recovery period at 37° C. in a humidified incubator with 95% atmosphere and 5% CO2 in Dulbecco's Modified Eagle Medium, the media was replaced with an external recording solution containing (in mM): 90 TEACl, 50 NaCl, 1.8 CaCl2, 1 MgCl2, 10 HEPES, 10 glucose, adjusted to pH 7.4 with TEAOH and 300 mOsm with sucrose. The internal recording solution contained (in mM): 129 CsF, 2 MgCl2, 11 EGTA, 10 HEPES, 6 NaCl, 3 Na2ATP adjusted to pH 7.2 with CsOH and 280 mOsm with sucrose. The automated liquid handling facility of PatchXpress dispensed cells and added compound. Modulation of Nav1.7 channels by compounds was assessed by promoting the channels into the inactivated state using a conditioning voltage pulse of variable amplitude, followed by a brief hyperpolarizing pulse with a subsequent depolarized voltage step to measure the current amplitude in the presence and absence of compound.
(§3) In some cases, the potency of compounds was measured using either the Patchliner automated patch clamp platform (Nanion) or manual patch clamp techniques. Both approaches allowed the compounds to be characterized based upon the ability of a compound to modulate use- and/or state-dependence across human Nav1.7 (hNav1.7), human Nav1.5 (hNav1.5) and rat Nav1.2 (rNav1.2). The potency data is tabulated in Table 2 and is represented by six data fields. Three of the six fields represent potency data measured with the Patchliner automated platform under varying use- and state-dependent electrophysiology protocols similar to the PatchXpress protocols detailed above. For example, the second data column describes the potency of compounds in their ability to block 50% of Nav1.7 channels when the channel is repetitively activated by depolarizing voltage potentials to induce slow inactivation in approximately 50% of channels (Table 2: h Nav1.7: IC50 Slow Inactivation Block, Automated Patchclamp). The next three data fields describe the data generated from manual patchclamp electrophysiology measurements using similar methods to those employed for automated patchclamp studies.

[2] = molecular target: T2, human Nav1.5 (hNav1.5) (Homo sapiens, UniProt Q14524); assay: hNav1.5 slow inactivation block, manual patchclamp; conditions: HEK 293F cells stably expressing hNav1.5
T2 construct: expressed in transfected cells
Text: as §1, with “CO2. […]” for “CO2.”
as §2, §3

[3] = molecular target: T3, rat Nav1.2 (rNav1.2) (Rattus norvegicus, UniProt P04775); assay: rNav1.2 slow inactivation block, manual patchclamp; conditions: HEK 293F cells stably expressing rNav1.2
T3 construct: expressed in transfected cells
Text: as §1, §2, §3

[4] = molecular target: T1, human Nav1.7 (hNav1.7); assay: hNav1.7 slow inactivation block, automated patchclamp; conditions: HEK 293F cells stably expressing hNav1.7, slow inactivation induced in approximately 50% of channels
Text: as §1, §2, §3

[5] = molecular target: T3, rat Nav1.2 (rNav1.2); assay: rNav1.2 slow inactivation block, automated patchclamp; conditions: HEK 293F cells stably expressing rNav1.2
Text: as §1, §2, §3

T1 sequence (Q15858 whole entry): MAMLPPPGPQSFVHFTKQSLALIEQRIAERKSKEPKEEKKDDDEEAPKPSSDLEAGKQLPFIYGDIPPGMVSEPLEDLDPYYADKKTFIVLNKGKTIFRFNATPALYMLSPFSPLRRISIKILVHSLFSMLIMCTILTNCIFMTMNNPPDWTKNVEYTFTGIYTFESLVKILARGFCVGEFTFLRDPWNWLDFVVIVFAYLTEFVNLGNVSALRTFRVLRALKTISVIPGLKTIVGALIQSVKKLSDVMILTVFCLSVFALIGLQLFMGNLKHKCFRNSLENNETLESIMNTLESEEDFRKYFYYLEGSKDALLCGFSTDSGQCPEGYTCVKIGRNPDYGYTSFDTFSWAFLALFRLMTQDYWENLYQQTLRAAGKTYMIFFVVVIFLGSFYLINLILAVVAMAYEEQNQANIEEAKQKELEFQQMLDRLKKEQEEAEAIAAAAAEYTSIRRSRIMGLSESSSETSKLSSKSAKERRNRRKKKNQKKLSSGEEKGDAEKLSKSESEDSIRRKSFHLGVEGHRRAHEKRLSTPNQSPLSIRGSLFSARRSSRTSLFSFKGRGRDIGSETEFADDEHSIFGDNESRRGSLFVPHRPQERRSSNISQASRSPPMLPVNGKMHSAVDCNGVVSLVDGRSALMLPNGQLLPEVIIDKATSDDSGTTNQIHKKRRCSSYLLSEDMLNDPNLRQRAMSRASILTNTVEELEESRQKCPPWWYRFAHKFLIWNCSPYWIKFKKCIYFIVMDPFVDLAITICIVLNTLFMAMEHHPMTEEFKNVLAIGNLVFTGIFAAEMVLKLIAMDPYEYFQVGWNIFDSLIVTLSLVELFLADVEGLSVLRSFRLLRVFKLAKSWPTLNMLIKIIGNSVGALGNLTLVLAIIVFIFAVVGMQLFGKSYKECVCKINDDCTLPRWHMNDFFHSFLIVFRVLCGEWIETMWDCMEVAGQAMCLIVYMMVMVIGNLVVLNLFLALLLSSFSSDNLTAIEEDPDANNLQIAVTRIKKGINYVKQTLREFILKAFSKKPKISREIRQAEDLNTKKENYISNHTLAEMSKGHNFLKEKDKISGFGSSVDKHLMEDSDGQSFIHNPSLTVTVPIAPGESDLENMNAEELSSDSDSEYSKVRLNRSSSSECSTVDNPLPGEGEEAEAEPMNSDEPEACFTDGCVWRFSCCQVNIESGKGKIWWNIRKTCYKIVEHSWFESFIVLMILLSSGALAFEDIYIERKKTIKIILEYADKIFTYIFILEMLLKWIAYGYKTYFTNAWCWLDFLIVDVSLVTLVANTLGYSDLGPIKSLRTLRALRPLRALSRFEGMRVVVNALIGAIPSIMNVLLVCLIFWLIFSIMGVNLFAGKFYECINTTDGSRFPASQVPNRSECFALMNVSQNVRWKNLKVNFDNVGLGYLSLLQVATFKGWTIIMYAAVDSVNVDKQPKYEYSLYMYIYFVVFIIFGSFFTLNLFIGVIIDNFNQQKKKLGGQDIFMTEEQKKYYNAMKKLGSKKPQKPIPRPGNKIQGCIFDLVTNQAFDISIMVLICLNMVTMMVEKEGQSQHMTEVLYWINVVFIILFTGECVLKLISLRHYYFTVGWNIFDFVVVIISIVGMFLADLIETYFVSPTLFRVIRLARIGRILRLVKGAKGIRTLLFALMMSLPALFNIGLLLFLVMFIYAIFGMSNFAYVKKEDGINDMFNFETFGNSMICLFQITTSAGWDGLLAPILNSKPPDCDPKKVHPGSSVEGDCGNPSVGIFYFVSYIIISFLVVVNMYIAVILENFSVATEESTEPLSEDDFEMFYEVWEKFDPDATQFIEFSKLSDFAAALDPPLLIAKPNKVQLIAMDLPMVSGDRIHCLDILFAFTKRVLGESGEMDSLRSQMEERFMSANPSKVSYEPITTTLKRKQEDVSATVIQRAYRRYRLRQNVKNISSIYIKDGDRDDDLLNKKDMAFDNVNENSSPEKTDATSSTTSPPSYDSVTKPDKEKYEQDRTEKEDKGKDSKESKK
T1 sequence (Q07699 19-218 partner): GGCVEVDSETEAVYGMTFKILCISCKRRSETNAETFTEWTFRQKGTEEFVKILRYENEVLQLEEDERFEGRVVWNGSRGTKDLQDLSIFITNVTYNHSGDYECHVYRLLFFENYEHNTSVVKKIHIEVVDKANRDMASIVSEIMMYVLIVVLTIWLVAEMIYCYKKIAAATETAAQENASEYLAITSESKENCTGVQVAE
T2 sequence (Q14524 whole entry): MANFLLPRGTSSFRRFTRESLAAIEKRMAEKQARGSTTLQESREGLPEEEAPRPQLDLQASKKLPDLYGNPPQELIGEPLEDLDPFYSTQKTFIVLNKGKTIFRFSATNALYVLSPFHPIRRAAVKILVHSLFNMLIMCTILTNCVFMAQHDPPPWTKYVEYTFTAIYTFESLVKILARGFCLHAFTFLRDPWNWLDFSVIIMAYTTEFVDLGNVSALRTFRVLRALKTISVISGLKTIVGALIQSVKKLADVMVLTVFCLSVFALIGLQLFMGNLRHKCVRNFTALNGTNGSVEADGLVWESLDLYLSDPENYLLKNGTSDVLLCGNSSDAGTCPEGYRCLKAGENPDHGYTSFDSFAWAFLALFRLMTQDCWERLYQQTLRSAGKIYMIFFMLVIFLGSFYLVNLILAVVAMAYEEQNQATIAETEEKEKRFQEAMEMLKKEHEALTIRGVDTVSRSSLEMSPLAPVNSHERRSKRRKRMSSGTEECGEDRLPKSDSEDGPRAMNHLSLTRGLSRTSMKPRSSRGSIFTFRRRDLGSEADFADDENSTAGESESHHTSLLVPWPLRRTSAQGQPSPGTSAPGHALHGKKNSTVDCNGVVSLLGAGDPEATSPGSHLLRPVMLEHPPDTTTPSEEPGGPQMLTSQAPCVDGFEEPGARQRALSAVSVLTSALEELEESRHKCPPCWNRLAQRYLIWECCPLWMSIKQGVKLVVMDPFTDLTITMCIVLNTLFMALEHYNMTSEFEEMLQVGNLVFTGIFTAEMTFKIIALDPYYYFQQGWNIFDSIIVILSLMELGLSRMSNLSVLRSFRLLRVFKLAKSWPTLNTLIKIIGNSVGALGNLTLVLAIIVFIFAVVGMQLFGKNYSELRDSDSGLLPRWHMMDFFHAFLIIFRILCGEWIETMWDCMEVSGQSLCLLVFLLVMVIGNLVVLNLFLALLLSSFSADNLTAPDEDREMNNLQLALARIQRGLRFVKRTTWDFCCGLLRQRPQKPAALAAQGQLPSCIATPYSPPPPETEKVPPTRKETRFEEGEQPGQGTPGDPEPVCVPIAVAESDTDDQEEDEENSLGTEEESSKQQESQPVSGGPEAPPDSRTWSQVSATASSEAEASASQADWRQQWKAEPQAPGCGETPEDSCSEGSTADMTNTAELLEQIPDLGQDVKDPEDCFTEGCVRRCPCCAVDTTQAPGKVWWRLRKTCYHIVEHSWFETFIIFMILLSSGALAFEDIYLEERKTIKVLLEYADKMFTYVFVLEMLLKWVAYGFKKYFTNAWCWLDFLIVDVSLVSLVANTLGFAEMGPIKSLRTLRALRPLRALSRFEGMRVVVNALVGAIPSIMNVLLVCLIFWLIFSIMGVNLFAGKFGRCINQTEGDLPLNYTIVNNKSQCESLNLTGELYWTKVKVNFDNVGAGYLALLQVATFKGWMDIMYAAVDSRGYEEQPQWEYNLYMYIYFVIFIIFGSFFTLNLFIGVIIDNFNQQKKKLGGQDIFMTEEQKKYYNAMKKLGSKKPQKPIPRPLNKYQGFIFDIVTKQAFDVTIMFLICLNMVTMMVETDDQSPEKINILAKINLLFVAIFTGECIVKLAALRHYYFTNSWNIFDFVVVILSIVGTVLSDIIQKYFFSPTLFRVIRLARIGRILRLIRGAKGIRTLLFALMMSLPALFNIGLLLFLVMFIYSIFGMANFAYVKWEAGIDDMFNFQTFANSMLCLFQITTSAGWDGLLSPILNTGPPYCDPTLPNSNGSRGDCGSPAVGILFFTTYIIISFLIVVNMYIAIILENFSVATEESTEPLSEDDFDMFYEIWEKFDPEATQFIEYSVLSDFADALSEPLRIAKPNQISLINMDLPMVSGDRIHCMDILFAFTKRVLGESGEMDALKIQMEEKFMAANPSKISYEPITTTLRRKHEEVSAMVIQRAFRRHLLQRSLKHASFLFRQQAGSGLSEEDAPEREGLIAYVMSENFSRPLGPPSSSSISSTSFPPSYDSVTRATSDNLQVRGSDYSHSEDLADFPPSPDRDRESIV

O=C(NCc1cc(F)c(Oc2cc(Br)cc(C(F)(F)F)c2)cc1F)c1ncns1 [Compound 1, N-(4-(3-bromo-5-(trifluoromethyl)phenoxy)-2,5-difluorobenzyl)-1,2,4-thiadiazole-5-carboxamide]
IC50 [1]: 294 nM | IC50 [2]: < 1000 nM

CN(c1ncns1)S(=O)(=O)c1cc(F)c(Oc2cc(Br)cc(C(F)(F)F)c2)cc1F [Compound 2, 4-(3-bromo-5-(trifluoromethyl)phenoxy)-2,5-difluoro-N-methyl-N-(1,2,4-thiadiazol-5-yl)benzenesulfonamide]
IC50 [1]: 484 nM | IC50 [2]: > 3200 nM

O=S(=O)(Nc1ncns1)c1cc(F)c(Oc2cc(C(F)(F)F)cc(C(F)(F)F)c2)cc1F [Compound 5, 4-[3,5-bis(trifluoromethyl)phenoxy]-2,5-difluoro-N-(1,2,4-thiadiazol-5-yl)benzene-1-sulfonamide]
IC50 [1]: 393 nM | IC50 [3]: 19400 nM | IC50 [2]: 16600 nM | IC50 [4]: 7250 nM

O=C(Cc1cccc(-c2cc(C(F)(F)F)cc(C(F)(F)F)c2)c1)Nc1ncns1 [Compound 21, 2-{3-[3,5-bis(trifluoromethyl)phenyl]phenyl}-N-(1,2,4-thiadiazol-5-yl)acetamide]
IC50 [1]: ~383 nM | IC50 [3]: ~389 nM | IC50 [2]: 550 nM

NC(=O)c1cc(Oc2cc(F)c(S(=O)(=O)Nc3ncns3)cc2F)cc(C(F)(F)F)c1 [Compound 24, 3-{2,5-difluoro-4-[(1,2,4-thiadiazol-5-yl)sulfamoyl]phenoxy}-5-(trifluoromethyl)benzamide]
IC50 [5]: > 32000 nM | IC50 [1]: 3890 nM | IC50 [3]: > 10000 nM | IC50 [4]: 23600 nM

CCOC(=O)c1cc(Oc2cc(F)c(S(=O)(=O)Nc3ncns3)cc2F)cc(C(F)(F)F)c1 [Compound 26, ethyl 3-{2,5-difluoro-4-[(1,2,4-thiadiazol-5-yl)sulfamoyl]phenoxy}-5-(trifluoromethyl)benzoate]
IC50 [5]: > 32000 nM | IC50 [1]: 2130 nM | IC50 [3]: > 10000 nM | IC50 [4]: ~37200 nM

N#Cc1cc(Oc2cc(F)c(S(=O)(=O)Nc3ncns3)cc2F)cc(C(F)(F)F)c1 [Compound 27, 4-[3-cyano-5-(trifluoromethyl)phenoxy]-2,5-difluoro-N-(1,2,4-thiadiazol-5-yl)benzene-1-sulfonamide]
IC50 [5]: ~32000 nM | IC50 [1]: 2170 nM | IC50 [3]: ~32000 nM | IC50 [4]: 18000 nM

O=S(=O)(Nc1ncns1)c1cc(F)c(Oc2cc(F)cc(F)c2)cc1F [Compound 28, 4-(3,5-difluorophenoxy)-2,5-difluoro-N-(1,2,4-thiadiazol-5-yl)benzene-1-sulfonamide]
IC50 [5]: > 32000 nM | IC50 [1]: ~3960 nM | IC50 [3]: > 10000 nM | IC50 [4]: ~37900 nM

O=S(=O)(Nc1cccnn1)c1cc(F)c(Oc2cc(C(F)(F)F)cc(C(F)(F)F)c2)cc1F [Compound 30, 4-[3,5-bis(trifluoromethyl)phenoxy]-2,5-difluoro-N-(pyridazin-3-yl)benzene-1-sulfonamide]
IC50 [5]: ~25200 nM | IC50 [1]: 4840 nM | IC50 [3]: 11400 nM | IC50 [4]: ~36000 nM

O=S(=O)(Nc1ncns1)c1cc(F)c(Oc2cc(F)cc(C(F)(F)F)c2)cc1F [Compound 32, 2,5-difluoro-4-(3-fluoro-5-(trifluoromethyl)phenoxy)-N-(1,2,4-thiadiazol-5-yl)benzenesulfonamide]
IC50 [5]: > 32000 nM | IC50 [1]: 942 nM | IC50 [3]: > 10000 nM | IC50 [4]: ~21100 nM

O=S(=O)(Nc1ncns1)c1cc(F)c(Oc2cc(Br)cc(C(F)(F)F)c2)cc1F [Compound 33, 4-[3-bromo-5-(trifluoromethyl)phenoxy]-2,5-difluoro-N-(1,2,4-thiadiazol-5-yl)benzene-1-sulfonamide]
IC50 [1]: 118 nM | IC50 [3]: ~4910 nM | IC50 [2]: ~4010 nM | IC50 [4]: ~10000 nM

COc1cc(Oc2cc(F)c(S(=O)(=O)Nc3ncns3)cc2F)cc(C(F)(F)F)c1 [Compound 34, 2,5-difluoro-4-[3-methoxy-5-(trifluoromethyl)phenoxy]-N-(1,2,4-thiadiazol-5-yl)benzene-1-sulfonamide]
IC50 [1]: 186 nM | IC50 [3]: ~2740 nM | IC50 [2]: 1600 nM | IC50 [4]: ~6250 nM

O=S(=O)(Nc1ncns1)c1cc(F)c(Oc2cc(Cl)cc(C(F)(F)F)c2)cc1F [Compound 36, 4-[3-chloro-5-(trifluoromethyl)phenoxy]-2,5-difluoro-N-(1,2,4-thiadiazol-5-yl)benzene-1-sulfonamide]
IC50 [1]: 256 nM | IC50 [3]: > 10000 nM | IC50 [2]: ~4960 nM | IC50 [4]: ~11900 nM

CCCOc1cc(Oc2cc(F)c(S(=O)(=O)Nc3ncns3)cc2F)cc(C(F)(F)F)c1 [Compound 37, 2,5-difluoro-4-[3-propoxy-5-(trifluoromethyl)phenoxy]-N-(1,2,4-thiadiazol-5-yl)benzene-1-sulfonamide]
IC50 [1]: ~413 nM | IC50 [3]: > 10000 nM | IC50 [2]: 7210 nM | IC50 [4]: ~17600 nM

CN(C)C(=O)c1cc(Oc2cc(F)c(S(=O)(=O)Nc3ncns3)cc2F)cc(C(F)(F)F)c1 [Compound 38, 3-{2,5-difluoro-4-[(1,2,4-thiadiazol-5-yl)sulfamoyl]phenoxy}-N,N-dimethyl-5-(trifluoromethyl)benzamide]
IC50 [1]: 1600 nM | IC50 [2]: > 32000 nM | IC50 [4]: ~17100 nM

NC1(C(=O)NCc2cc(-c3cc(C(F)(F)F)cc(C(F)(F)F)c3)cc(C(F)(F)F)c2)CCCC1 [Compound 53, 1-amino-N-((3′,5,5′-tris(trifluoromethyl)-[1,1′-biphenyl]-3-yl)methyl)cyclopentane-1-carboxamide]
IC50 [5]: 1090 nM | IC50 [1]: 225 nM | IC50 [3]: 120 nM | IC50 [4]: 1880 nM

O=C(NCc1cc(-c2cc(C(F)(F)F)cc(C(F)(F)F)c2)cc(C(F)(F)F)c1)[C@H]1CCCN1 [Compound 55, (R)-N-((3′,5,5′-tris(trifluoromethyl)-[1,1′-biphenyl]-3-yl)methyl)pyrrolidine-2-carboxamide]
IC50 [5]: 2580 nM | IC50 [1]: 162 nM | IC50 [3]: 156 nM | IC50 [4]: 3610 nM

CN1CCC[C@H]1C(=O)NCc1cccc(-c2cc(C(F)(F)F)cc(C(F)(F)F)c2)c1 [Compound 57, (2S)-N-({3-[3,5-bis(trifluoromethyl)phenyl]phenyl}methyl)-1-methylpyrrolidine-2-carboxamide]
IC50 [5]: 12300 nM | IC50 [1]: 160 nM | IC50 [3]: 176 nM | IC50 [4]: 5620 nM

CN(Cc1cccc(-c2cc(C(F)(F)F)cc(C(F)(F)F)c2)c1)C(=O)[C@@H]1CCCN1 [Compound 58, (2S)-N-({3-[3,5-bis(trifluoromethyl)phenyl]phenyl}methyl)-N-methylpyrrolidine-2-carboxamide]
IC50 [5]: 2750 nM | IC50 [1]: 777 nM | IC50 [3]: 733 nM | IC50 [4]: 2470 nM

O=C(NCc1cccc(-c2cc(C(F)(F)F)cc(C(F)(F)F)c2)c1)[C@@H]1CCCN1S(=O)(=O)Nc1ccccc1 [Compound 59, (2S)-N-({3-[3,5-bis(trifluoromethyl)phenyl]phenyl}methyl)-1-(phenylsulfamoyl)pyrrolidine-2-carboxamide]
IC50 [5]: 8730 nM | IC50 [1]: 153 nM | IC50 [3]: 166 nM | IC50 [4]: 8690 nM
